Where two headings read alike, the source gives them in different places.
Key:
[1] = biological target: T1, L-type (Cav 1.3) channels (Rattus norvegicus, UniProt P27732); experiment: L-type Ca2+ channel agonist activity, whole-cell perforated patch clamp in tsA-201 cells; assay type: cell-based
T1 construct: host or cells: tsA-201
Experimental: For subsequent evaluation of effects on N-, P/Q-, or L-type channels, tsA-201 cells were transiently transfected with Cav2.2, Cav2.1, or Cav1.3, in combination with Cavβ3 and Cavα2β1 (Addgene, Cambridge Mass.) using FuGENE 6 (Life Technologies, Grand Island, N.Y.). All cells were maintained in DMEM supplemented with 10% fetal bovine serum.
Whole-cell patch clamp recordings of calcium current. […] Briefly, the pipette solution consisted of 70 nM Cs2SO4, 60 mM CsCl, 1 mM MgCl2, 10 mM 4-(2-hydroxyethyl)-1-piperazineethanesulfonic acid (HEPES) at pH 7.4. […] Patch pipettes were fabricated from borosilicate glass and pulled to a resistance of about 1 MΩ. Before each experiment, a stock solution consisting of 3 mg amphotericin-B dissolved into 50 μL anhydrous DMSO was made. […] Capacitive currents and passive membrane responses to voltage commands were subtracted from the data. Currents were amplified by an Axopatch 200B amplifier, filtered at 5 KHz, and digitized at 10 KHz for subsequent analysis using pClamp software (Axon Instruments/Molecular Devices; Sunnyvale, Calif.). […] To measure effects on calcium channel tail currents, the tail current integral was measured before and after application of a derivative, with the integral of each trace being normalized to its peak. All experiments were carried out at room temperature (22° C.). […]

cdk2 cyclinA(h) = biological target: T2, cdk2 cyclinA(h) (Homo sapiens, UniProt P24941); experiment: Kinase inhibitory activity (EMD Millipore KinaseProfiler), cdk2; assay type: biochemical
T2 construct: purchased EMD Millipore KinaseProfiler service (Millipore UK Ltd.)
Experimental: (§1) Kinase inhibitory activity. Kinase inhibitory activities were determined using the EMD Millipore KinaseProfiler™ service (Millipore UK Ltd.). Each compound's kinase inhibitory activity was tested at three different concentrations (0.2 μM, 2 μM, and 20 μM) against five different kinases: Cdk1 cyclinB(h), cdk2 cyclinA(h), cdk5 p35(h), mitogen-activated protein kinase (MAPK1(h)) and myosin light-chain kinase (MLCK(h)).
(§2) Statistical Analysis. […] For the dose-response analyses on Ca^2+ current, each concentration of the four different compounds was tested in 3-6 cells. […] All EC50 and IC50 values and their respective errors were determined by performing 100 iterations of a logistic function curve fit.

Cdk1 cyclinB(h) = biological target: T3, Cdk1 cyclinB(h) (Homo sapiens, UniProt P06493); experiment: Kinase inhibitory activity (EMD Millipore KinaseProfiler), cdk1; assay type: biochemical; details: 20 μM highest concentration used; read-out: Cdk1 EC50/IC50 affinities
T3 construct: purchased EMD Millipore KinaseProfiler service (Millipore UK Ltd.)
Experimental: as §1
(§3) Statistical Analysis. Statistical analysis was performed using either GraphPad Prism 5 (GraphPad Software, Inc.) or Origin 7 (OriginLab) software. For the dose-response analyses on Ca^2+ current, each concentration of the four different compounds was tested in 3-6 cells. […] All EC50 and IC50 values and their respective errors were determined by performing 100 iterations of a logistic function curve fit. Data are presented as mean±s.e.m. unless otherwise noted.

cdk5 p35(h) = biological target: T4, cdk5 p35(h) (Homo sapiens, UniProt Q00535); experiment: Kinase inhibitory activity (EMD Millipore KinaseProfiler), cdk5; assay type: biochemical; details: 20 μM highest concentration used; read-out: Cdk5 EC50/IC50 affinities
T4 construct: purchased EMD Millipore KinaseProfiler service (Millipore UK Ltd.)
Experimental: as §1, §3

[2] = biological target: T5, mitogen-activated protein kinase (MAPK1(h)) (Homo sapiens, UniProt P27361); experiment: Kinase inhibitory activity (EMD Millipore KinaseProfiler), MAPK1; assay type: biochemical; details: 20 μM highest concentration used; read-out: MAPK EC50/IC50 affinities
T5 construct: purchased EMD Millipore KinaseProfiler service (Millipore UK Ltd.)
Experimental: as §1, §2

[3] = biological target: T6, myosin light-chain kinase (MLCK(h)) (Homo sapiens, UniProt Q9H1R3); experiment: Kinase inhibitory activity (EMD Millipore KinaseProfiler), MLCK; assay type: biochemical; details: 20 μM highest concentration used; read-out: MLCK EC50/IC50 affinities
T6 construct: purchased EMD Millipore KinaseProfiler service (Millipore UK Ltd.)
Experimental: as §1, §2

[4] = system: LEMS passive transfer mouse NMJs; experiment: Intracellular recordings at LEMS passive transfer mouse NMJs, ex vivo ETA nerve-muscle preparation (Example 3)
Experimental: LEMS passive transfer. To test GV-58 in a LEMS model NMJ, an established LEMS passive transfer mouse model was utilized. To perform the passive transfer of LEMS, mice were injected with the serum of patients diagnosed with LEMS. […] Each serum sample was tested for the presence of voltage-gated Ca^2+ channel antibodies using a Ca^2+ channel antibody radioimmune assay (Kronus RIA kit, Star, Id.). Control serum was obtained from the University of Pittsburgh Medical Center blood bank. […]; 25-32 g; Charles River Laboratories) were divided into two groups: one group that received LEMS serum, and a control group that received control serum.
Intracellular recordings at mouse NMJs. […] A thin upper arm muscle, the epitrochleoanconeus (ETA), was chosen for these recordings. […] […]. A train of 10 EPPs was also collected in each muscle fiber using an inter-stimulus interval of 20 msec. To analyze the data, both the amplitudes and the areas under the waveforms (integral) were determined after correcting each digitized point in each trace for non-linear summation. Data were collected and analyzed using an Axoclamp 900A and the pClamp 10 suite of programs (Molecular Devices, Sunnyvale, Calif.).
Statistical Analysis. […] For the dose-response analyses on Ca^2+ current, each concentration of the four different compounds was tested in 3-6 cells. […]. All EC50 and IC50 values and their respective errors were determined by performing 100 iterations of a logistic function curve fit.

LEMS model NMJs = experiment: Intracellular recordings at LEMS model mouse NMJs, 13x, DAP and combination (Example 4); details: 50 μM 13x, […] DAP, or both
Experimental: To test this, intracellular microelectrode recordings were performed on ex vivo nerve-muscle preparations taken from LEMS passive-transfer model mice and measured the magnitude of acetylcholine released at the neuromuscular junction. The most sensitive method of quantifying the magnitude of acetylcholine released is to determine the quantal content. Quantal content is defined as the number of neurotransmitter-containing synaptic vesicles that are released from the nerve terminal during a single action potential stimulus. This value was determined by first measuring the area under the average action potential-evoked endplate potential (EPP) and then dividing this value by the area under the average single vesicle release event (miniature endplate potential; mEPP). This value could be compared between experimental groups to provide an accurate measurement of changes in the magnitude of acetylcholine released during a single action potential. Using this approach, the quantal content among five experimental conditions was compared: control NMJs, LEMS NMJs, LEMS NMJs exposed to 50 μM 13x, LEMS NMJs exposed to 1.5 μM DAP, and LEMS NMJs exposed to 50 μM 13x+1.5 μM DAP (FIG. 10). […]; EPP amplitude=10.18±0.62 mV) as compared with control serum treated mouse NMJs (QC=107.5±3.6; EPP amplitude=34.62±1.37 mV; Tarr et al., 2013). […] In fact, this 13x-mediated enhancement was very similar to what was observed after exposure of LEMS model NMJs to 1.5 μM DAP (QC=49.0±4.4; EPP amplitude=17.94±1.381 mV). […]; EPP amplitude=34.62±1.37 mV; Tarr et al., 2013). […] In summary, while either 13x or DAP alone caused about an 80% increase in transmitter release from LEMS model NMJs, the combination of 13x plus DAP caused about a 300% increase in transmitter release.

T1 sequence (P27732 whole entry): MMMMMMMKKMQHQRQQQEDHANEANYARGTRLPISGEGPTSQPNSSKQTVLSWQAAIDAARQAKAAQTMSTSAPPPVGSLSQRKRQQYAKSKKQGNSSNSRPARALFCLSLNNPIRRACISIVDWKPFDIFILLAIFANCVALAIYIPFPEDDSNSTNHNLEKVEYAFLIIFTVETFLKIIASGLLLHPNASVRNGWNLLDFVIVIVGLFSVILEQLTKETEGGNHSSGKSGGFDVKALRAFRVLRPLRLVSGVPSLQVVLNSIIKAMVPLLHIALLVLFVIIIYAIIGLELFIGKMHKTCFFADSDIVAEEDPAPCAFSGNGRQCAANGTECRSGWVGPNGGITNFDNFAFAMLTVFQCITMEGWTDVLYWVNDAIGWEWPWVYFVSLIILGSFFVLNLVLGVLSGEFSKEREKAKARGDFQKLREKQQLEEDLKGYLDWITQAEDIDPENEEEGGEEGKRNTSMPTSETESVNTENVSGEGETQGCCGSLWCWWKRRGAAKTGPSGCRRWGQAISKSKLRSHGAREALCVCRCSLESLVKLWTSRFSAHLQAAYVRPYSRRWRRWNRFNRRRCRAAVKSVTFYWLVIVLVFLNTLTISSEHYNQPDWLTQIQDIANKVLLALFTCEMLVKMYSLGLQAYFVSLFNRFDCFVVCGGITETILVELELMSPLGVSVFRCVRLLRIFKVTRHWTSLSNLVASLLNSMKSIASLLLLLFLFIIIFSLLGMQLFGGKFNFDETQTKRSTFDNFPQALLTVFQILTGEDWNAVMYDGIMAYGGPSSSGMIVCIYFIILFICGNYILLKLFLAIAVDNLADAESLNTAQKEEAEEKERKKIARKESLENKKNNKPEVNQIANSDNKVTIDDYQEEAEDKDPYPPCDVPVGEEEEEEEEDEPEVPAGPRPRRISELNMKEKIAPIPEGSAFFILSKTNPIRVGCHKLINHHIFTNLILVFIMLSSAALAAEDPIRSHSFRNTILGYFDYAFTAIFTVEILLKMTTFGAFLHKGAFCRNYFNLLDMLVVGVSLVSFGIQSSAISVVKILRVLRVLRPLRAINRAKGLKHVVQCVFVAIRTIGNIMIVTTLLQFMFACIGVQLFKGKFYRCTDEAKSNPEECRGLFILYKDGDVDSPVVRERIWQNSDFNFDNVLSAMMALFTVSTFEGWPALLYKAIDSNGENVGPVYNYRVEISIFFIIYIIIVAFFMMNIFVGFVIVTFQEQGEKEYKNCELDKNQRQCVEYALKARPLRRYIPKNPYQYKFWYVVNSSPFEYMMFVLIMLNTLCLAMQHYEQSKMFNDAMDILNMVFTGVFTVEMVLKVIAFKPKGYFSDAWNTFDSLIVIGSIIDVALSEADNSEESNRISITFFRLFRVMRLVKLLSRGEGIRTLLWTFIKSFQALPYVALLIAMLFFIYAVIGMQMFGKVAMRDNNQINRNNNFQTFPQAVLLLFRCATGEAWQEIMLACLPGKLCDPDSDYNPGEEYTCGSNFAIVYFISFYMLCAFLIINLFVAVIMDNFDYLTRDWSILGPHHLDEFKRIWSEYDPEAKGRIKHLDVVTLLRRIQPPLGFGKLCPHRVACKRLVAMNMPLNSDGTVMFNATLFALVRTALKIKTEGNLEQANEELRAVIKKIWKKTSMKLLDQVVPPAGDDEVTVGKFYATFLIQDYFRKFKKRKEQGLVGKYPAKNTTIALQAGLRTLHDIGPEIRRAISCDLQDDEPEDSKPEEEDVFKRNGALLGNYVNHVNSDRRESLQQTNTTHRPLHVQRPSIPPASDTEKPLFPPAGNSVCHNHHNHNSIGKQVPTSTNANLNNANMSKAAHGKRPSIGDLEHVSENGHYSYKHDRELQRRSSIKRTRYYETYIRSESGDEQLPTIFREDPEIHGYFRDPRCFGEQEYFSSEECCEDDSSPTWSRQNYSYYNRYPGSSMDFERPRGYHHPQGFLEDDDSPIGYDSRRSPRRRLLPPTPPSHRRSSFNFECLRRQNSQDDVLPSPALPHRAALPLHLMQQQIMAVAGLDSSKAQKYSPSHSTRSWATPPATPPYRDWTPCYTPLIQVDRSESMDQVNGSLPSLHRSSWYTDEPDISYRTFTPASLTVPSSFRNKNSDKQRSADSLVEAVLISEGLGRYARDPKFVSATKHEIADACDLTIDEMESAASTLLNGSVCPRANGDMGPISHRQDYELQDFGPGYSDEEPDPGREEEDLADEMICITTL
T5 sequence (P27361 whole entry): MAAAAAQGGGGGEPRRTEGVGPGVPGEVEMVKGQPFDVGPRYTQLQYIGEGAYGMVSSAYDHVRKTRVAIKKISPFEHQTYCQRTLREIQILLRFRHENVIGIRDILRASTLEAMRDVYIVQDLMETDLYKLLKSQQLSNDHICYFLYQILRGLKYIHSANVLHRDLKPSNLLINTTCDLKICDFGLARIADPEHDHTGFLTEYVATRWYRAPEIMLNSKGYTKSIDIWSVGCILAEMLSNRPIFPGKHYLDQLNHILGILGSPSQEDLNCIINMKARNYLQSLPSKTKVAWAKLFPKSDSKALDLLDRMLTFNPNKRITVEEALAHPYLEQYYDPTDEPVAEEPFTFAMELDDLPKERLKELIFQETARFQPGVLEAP
T4 sequence (Q00535 whole entry): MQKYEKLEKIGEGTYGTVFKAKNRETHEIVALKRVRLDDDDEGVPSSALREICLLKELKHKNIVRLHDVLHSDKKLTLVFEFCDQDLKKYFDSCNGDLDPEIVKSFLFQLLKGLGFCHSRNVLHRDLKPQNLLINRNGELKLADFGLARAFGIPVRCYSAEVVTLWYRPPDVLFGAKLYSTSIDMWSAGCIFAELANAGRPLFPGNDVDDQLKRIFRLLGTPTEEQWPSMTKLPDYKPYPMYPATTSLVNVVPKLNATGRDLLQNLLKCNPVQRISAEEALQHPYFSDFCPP
T4 sequence (Q15078 whole entry partner): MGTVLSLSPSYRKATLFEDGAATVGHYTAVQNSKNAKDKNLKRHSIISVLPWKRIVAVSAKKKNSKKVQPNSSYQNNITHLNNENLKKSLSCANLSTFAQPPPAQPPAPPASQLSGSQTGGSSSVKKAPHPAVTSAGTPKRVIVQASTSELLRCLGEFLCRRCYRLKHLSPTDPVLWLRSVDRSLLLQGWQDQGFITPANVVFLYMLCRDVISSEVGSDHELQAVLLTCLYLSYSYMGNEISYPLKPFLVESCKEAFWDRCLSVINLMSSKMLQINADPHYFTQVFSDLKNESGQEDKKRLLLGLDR
T3 sequence (P06493 whole entry): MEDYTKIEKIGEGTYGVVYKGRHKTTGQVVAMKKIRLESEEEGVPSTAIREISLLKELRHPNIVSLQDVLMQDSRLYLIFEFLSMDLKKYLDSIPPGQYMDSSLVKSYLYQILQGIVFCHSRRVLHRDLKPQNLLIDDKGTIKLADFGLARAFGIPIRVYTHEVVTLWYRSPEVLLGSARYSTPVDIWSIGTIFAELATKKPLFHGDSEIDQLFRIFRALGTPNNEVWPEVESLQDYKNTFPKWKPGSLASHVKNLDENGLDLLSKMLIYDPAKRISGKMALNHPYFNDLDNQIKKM
T3 sequence (P14635 whole entry partner): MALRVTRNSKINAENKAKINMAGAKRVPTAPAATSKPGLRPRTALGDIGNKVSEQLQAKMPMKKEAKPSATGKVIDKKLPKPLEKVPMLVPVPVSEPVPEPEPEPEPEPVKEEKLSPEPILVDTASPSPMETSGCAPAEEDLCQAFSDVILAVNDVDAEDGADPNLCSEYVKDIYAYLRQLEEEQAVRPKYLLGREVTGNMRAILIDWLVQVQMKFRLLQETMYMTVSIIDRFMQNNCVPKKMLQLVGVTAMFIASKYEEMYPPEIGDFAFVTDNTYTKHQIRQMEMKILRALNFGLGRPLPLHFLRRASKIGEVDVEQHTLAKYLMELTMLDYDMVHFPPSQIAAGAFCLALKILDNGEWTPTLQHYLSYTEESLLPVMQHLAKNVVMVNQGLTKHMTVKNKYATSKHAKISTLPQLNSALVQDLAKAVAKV

Question: What does the source list for CCCn1cnc2c(NCc3ccc(C)s3)nc(N[C@H](CC)CO)nc21 [Compound 13x, (2R)-2-[(6-{[(5-Methylthiophen-2-yl)methyl]amino}-9-propyl-9H-purin-2-yl)amino]butan-1-ol]?
Answer: EC50 ([1]; Cav 1.3, no measureable agonist effect up to 100 μM, read-out: L-type EC50/IC50 affinities): > 100 µM; EC50 ([1]; b265, read-out: agonist effects on L-type calcium channels EC50): > 100 µM; IC50 (cdk2 cyclinA(h); 20 μM highest concentration used, read-out: Cdk2 EC50/IC50 affinities): 3.29 ± 0.43 µM; EC50 (cdk2 cyclinA(h); determined in duplicate at 0.2, 2, and 20 μM, read-out: Cdk2 Activity EC50 +/− SEM): 3 µM; IC50 (Cdk1 cyclinB(h)): 20.6 ± 0.96 µM; IC50 (cdk5 p35(h)): 3.03 ± 0.32 µM; IC50 [2]: > 20 µM; IC50 [3]: > 20 µM; increase of the strength of neuromuscular transmission [4]: about 50%; EPP 90% to 10% decay time ([4]; 50 μM): 6.79 ± 0.11 ms; EPP full width at half maximum (FWHM) ([4]; 50 μM): 3.90 ± 0.07 ms; final EPP in 50 Hz train of 10 stimuli, normalized to the first EPP ([4]; 50 μM): about 94%; mEPP frequency ([4]; 50 μM): 10.45 ± 0.64 s⁻¹; increase of quantal content when measuring area ([4]; 50 μM vs vehicle): ~92%; increase of quantal content when measuring peak ([4]; 50 μM vs vehicle): ~62%; mean change in mEPP amplitude ([4]; 50 μM, relative to vehicle): 1.00±0.02; EPP amplitude ([4]; aBC2 serum NMJs, 30-minute incubation in 50 μM): 19.44±0.98 mV; 10th EPP of 50 Hz train as % of the first EPP (short-term plasticity) (LEMS model NMJs): ~123%; increase in transmitter release from LEMS model NMJs (LEMS model NMJs): ~80%; EPP amplitude (LEMS model NMJs; LEMS model NMJs): 13.75±1.244 mV; quantal content (QC, area of EPP divided by area of mEPP) (LEMS model NMJs; LEMS model NMJs, mean±s.e.m.): 48.4±2.7

Reference: patent US9796714B2, “Calcium channel agonists” (University of Pittsburgh—Of the Commonwealth System of …, priority 2013, dated 2017)
